Consider 25 molecules from ChEMBL document CHEMBL1154965, “3-(Arylsulfonyl)-1-(azacyclyl)-1H-indoles are 5-HT(6) receptor modulators” (Bioorg Med Chem Lett, 2010).

In assay [1] the target is T1, 5-hydroxytryptamine receptor 6 (Homo sapiens, UniProt P50406). The assay can be described thus: Displacement of [3H]LSD from human 5-HT6 receptor expressed in human HeLa cells after 2 hrs. It counts as cell-based. In general terms: In a radioligand displacement assay an active substance lowers the binding of a labelled ligand.
Assay [2] deals with T1, 5-hydroxytryptamine receptor 6. The assay can be described thus: Agonist activity at human 5-HT6 receptor expressed in human HeLa cells assessed as effect on 5HT-induced intracellular cAMP level after 10 mins by radioimmunoassay relative to serotonin. In kind it is functional, cell-based. (Changes in cAMP serve as a functional read-out for many G protein-coupled receptors.)

For assay [3] the target is unchanged. The assay can be described thus: Agonist activity at human 5-HT6 receptor expressed in human HeLa cells assessed as effect on 5HT-induced intracellular cAMP level after 10 mins by radioimmunoassay. In kind it is functional, cell-based.
The target is the same in assay [4]. Briefly: Antagonist activity at human 5-HT6 receptor expressed in human HeLa cells assessed as inhibition of 5HT-induced intracellular cAMP level after 10 mins by radioimmunoassay relative to serotonin. In kind it is functional, cell-based.
The target is the same in assay [5]. The assay can be described thus: Antagonist activity at human 5-HT6 receptor expressed in human HeLa cells assessed as inhibition of 5HT-induced intracellular cAMP level after 10 mins by radioimmunoassay. In kind it is functional, cell-based.

Structures are written as SMILES.

T1 sequence (P50406 whole entry): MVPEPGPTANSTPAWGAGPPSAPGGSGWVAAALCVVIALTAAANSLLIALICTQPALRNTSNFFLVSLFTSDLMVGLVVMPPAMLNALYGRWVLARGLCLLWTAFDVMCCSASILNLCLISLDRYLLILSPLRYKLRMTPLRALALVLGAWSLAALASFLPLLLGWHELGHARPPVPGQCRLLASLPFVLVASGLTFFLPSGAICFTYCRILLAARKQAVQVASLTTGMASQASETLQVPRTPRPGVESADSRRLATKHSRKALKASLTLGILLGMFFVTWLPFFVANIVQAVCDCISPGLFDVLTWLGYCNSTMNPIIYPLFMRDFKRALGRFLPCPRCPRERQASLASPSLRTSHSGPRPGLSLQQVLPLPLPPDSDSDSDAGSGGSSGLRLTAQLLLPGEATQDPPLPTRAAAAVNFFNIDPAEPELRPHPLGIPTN

The Ki is a measure of affinity in units of concentration, obtained from inhibition or displacement. The term Emax denotes the size of the effect at its maximum, as opposed to the concentration needed. One may read the EC50 as the concentration giving half of the maximal effect. In assay [1], `O=S(=O)(c1ccccc1)c1cn(C2CCNC2)c2ccccc12` (stereo not drawn) yielded a Ki of 5 nM. In addition, the Emax in assay [2] is 70%. Further, the concentration giving a half-maximal response (EC50) in assay [3] came out at 60 nM.
On the same counts, the results for `CN1CCC(n2cc(S(=O)(=O)c3cccc(F)c3)c3ccccc32)C1` (stereo not drawn) are 3.5 nM, 49% and 398 nM.
The IC50 is the concentration needed to halve the response being measured. The molecule `CN1CCC(n2cc(S(=O)(=O)c3cccc(F)c3)c3cc(F)ccc32)C1` (stereo not drawn) showed a Ki in assay [1] of 5 nM. Also, the Imax in assay [4] came out at 70%. Besides, the IC50 in assay [5] worked out at 94 nM.
In assay [1], `CCN1CCCC(n2cc(S(=O)(=O)c3ccccc3)c3ccccc32)C1` (stereo not drawn) showed an inhibitory constant (Ki) of 7.3 nM. The maximum response (Emax) in assay [2] was 52%. Moreover, in assay [3], the EC50 was determined as 31 nM.
In the case of `COc1ccc2c(S(=O)(=O)c3cccc(Cl)c3)cn(C3CCNC3)c2c1` (stereo not drawn), the affinity in assay [1] corresponds to a Ki of 4.6 nM. Also, the Imax in assay [4] turned out to be 100%. The IC50 in assay [5] turned out to be 80 nM.
Regarding `O=S(=O)(c1cccc(F)c1)c1cn(C2CCCNC2)c2ccc(F)cc12` (stereo not drawn), in assay [4], the Imax turned out to be 85%. Besides, the IC50 in assay [5] amounted to 18 nM.
In turn, `CN1CCCC(n2cc(S(=O)(=O)c3cccc4ccccc34)c3ccccc32)C1` (stereo not drawn) yielded a Ki in assay [1] of 7.1 nM. Besides, in assay [4], the Imax is 87%. In assay [5], the IC50 worked out at 107 nM.
Regarding `O=S(=O)(c1cccc(F)c1)c1cn(C2CCNC2)c2ccc(Cl)cc12` (stereo not drawn), the Ki in assay [1] was 15 nM.
In turn, `O=S(=O)(c1cn(C2CCCNC2)c2ccccc12)c1cccc2cccnc12` (stereo not drawn) returned a Ki in assay [1] of 5.6 nM. In assay [2], the Emax amounted to 71%. Further, in assay [3], the EC50 is 592 nM.
As for `O=S(=O)(c1cccc(F)c1)c1cn(C2CCNC2)c2cccc(F)c12` (stereo not drawn), in assay [1], the Ki was 18 nM.
`O=S(=O)(c1cccc(F)c1)c1cn(C2CCNC2)c2ccc(F)cc12` (stereo not drawn) came in with a Ki in assay [1] of 9.6 nM. In assay [2], the Emax came out at 50%. The EC50 in assay [3] was 38 nM.
`CCN1CCCC(n2cc(S(=O)(=O)c3cccc(F)c3)c3cc(OC)ccc32)C1` (stereo not drawn) showed a Ki in assay [1] of 16 nM. In assay [2], the Emax was determined as 50%. Moreover, the half-maximal effective concentration (EC50) in assay [3] is 203 nM.
On to `O=S(=O)(c1ccccc1)c1cn(C2CCN(Cc3ccccc3)C2)c2ccccc12` (stereo not drawn), for which, in assay [1], the Ki was 113 nM.
The molecule `O=S(=O)(c1cccc(F)c1)c1cn(C2CCNC2)c2ccccc12` (stereo not drawn) had an inhibitory constant (Ki) in assay [1] of 4.7 nM. Also, the Emax in assay [2] was 38%. In addition, the EC50 in assay [3] was 68 nM.
`O=S(=O)(c1cn(C2CCNC2)c2ccccc12)c1cccc2cccnc12` (stereo not drawn) came in with a Ki in assay [1] of 1.5 nM. Besides, the Imax in assay [4] came out at 64%. The IC50 in assay [5] came to 82 nM.
In turn, `O=S(=O)(c1cccc(F)c1)c1cn(C2CCNC2)c2cc(Cl)ccc12` (stereo not drawn) yielded a Ki in assay [1] of 72 nM.
In the case of `O=S(=O)(c1ccccc1)c1cn(C2CCCNC2)c2ccccc12` (stereo not drawn), the Emax in assay [2] came to 99%. Further, in assay [3], the EC50 stood at 82 nM.
In turn, `COc1ccc2c(c1)c(S(=O)(=O)c1cccc(F)c1)cn2C1CCCNC1` (stereo not drawn) had a Ki in assay [1] of 10.7 nM. Further, the maximal response (Emax) in assay [2] was 75%. Besides, the EC50 in assay [3] worked out at 73 nM.
As to `CN1CCC(n2cc(S(=O)(=O)c3cccc4ccccc34)c3ccccc32)C1` (stereo not drawn), affinity in assay [1] was put at a Ki of 6 nM. Besides, in assay [4], the Imax amounted to 98%. In assay [5], the IC50 came out at 60 nM.
In turn, `O=S(=O)(c1cccc2ccccc12)c1cn(C2CCNC2)c2ccccc12` (stereo not drawn) came in with an inhibitory constant (Ki) in assay [1] of 23.3 nM. Besides, the Imax in assay [4] amounted to 100%. The IC50 in assay [5] turned out to be 107 nM.
Molecule `O=S(=O)(c1cccc(Cl)c1)c1cn(C2CCNC2)c2ccccc12` (stereo not drawn) returned a Ki in assay [1] of 3.2 nM. For the same molecule, in assay [2], the Emax was 48%. For the same molecule, the EC50 in assay [3] was 125 nM.
On the same counts, the results for `O=S(=O)(c1cccc(F)c1)c1cn(C2CCCNC2)c2ccccc12` (stereo not drawn) are 6 nM, 78% and 56 nM.
In assay [1], `O=S(=O)(c1cccc(F)c1)c1cn(C2CCNC2)c2cc(F)ccc12` (stereo not drawn) gave a Ki of 18 nM.
As for `CN1CCC(n2cc(S(=O)(=O)c3cccc4cccnc34)c3ccccc32)C1` (stereo not drawn), the affinity in assay [1] corresponds to a Ki of 2.8 nM. Further, the Imax in assay [4] was determined as 97%. For the same molecule, in assay [5], the IC50 was found to be 76 nM.
On the same counts, the results for `CN1CCC(n2cc(S(=O)(=O)c3cccc(Cl)c3)c3ccccc32)C1` (stereo not drawn) are 1.3 nM, 86% and 17 nM.
